In patent US12441775B2, “BCL-W polypeptides and mimetics for treating or preventing chemotherapy-induced peripheral neuropathy and hearing loss” (Dana-Farber Cancer Institute, Inc., priority 2016, dated 2025):

Key:
Type in all cases: cell-based, rat
[1] = system: axonal mitochondria of E15 DRG neurons; experiment: TMRE measurement of mitochondrial membrane potential in microfluidic cultures; details: paclitaxel added to distal axon compartment
Description: Microfluidic chambers cultures were prepared as described (see, e.g., Fenstermacher et al., Nature Neuroscience, 19:690-696 (2016)), with modifications. Briefly, 3×10^4E15 DRG neurons (4 μl volume) were plated into one channel of a microfluidic device (Xona Microfluidics, SND450) affixed to a PDL/laminin-coated cover glass (Fisherbrand Microscope Cover Glass; 24×40-1.5). Cells were plated in media with 0.3 μM AraC; 50 ng/mL NGF+BDNF was added to cell body wells, and 100 ng/ml was added to axon wells. On day 2, cell body neurotrophins were reduced to 10 ng/ml. On day 4, cell body neurotrophins were reduced to 1 ng/ml and axon neurotrophins were reduced to 10 ng/ml. For paclitaxel treatment experiments, 60 μM paclitaxel or 0.1% DMSO vehicle control was added on day 5 to axon wells for 48 hours. Cells were fixed at room temperature with 4% PFA diluted 1:2 in media for 10 min, then undiluted 4% PFA for an additional 10 min.
Tetramethylrhodamine ethyl ester measurements of mitochondrial membrane potential. […] Fluorescence intensity of axonal mitochondria was measured by dividing the fluorescence intensity of each mitochondria (Fm) by the background fluorescence intensity of a nearby cytoplasmic region (Fc). Fluorescence intensity was measured using NIH ImageJ software for 80 mitochondria per condition across three experiments, by an observer blind to condition.

[2] = system: axons of E15 DRG sensory neurons; experiment: Axonal degeneration assay in compartmented chamber cultures (degeneration index); details: for axon degeneration (axonal fragmentation, degeneration index): 24 hours
Description: Cell culture. Compartmented chamber (Campenot) cultures were prepared as described (see, e.g., Fenstermacher et al., Springer Protocols: Neuromethods, 103:105-124 (2015)), with modifications. Briefly, DRGs from embryonic day 15 (E15) rats of either sex were dissected and trypsinized. DRGs (1.2×10^5 cells) were plated in the center compartment of a Teflon divider (Camp10, Tyler Research; Campenot, 1982) affixed to a p35 culture dish coated with growth factor reduced Matrigel basement membrane (BD Biosciences) 1:45 in DMEM. Cultures were maintained in media consisting of Neurobasal (Invitrogen) with 2% B27 supplement (Invitrogen), 1% penicillin-streptomycin, 1% GlutaMAX (Life Technologies), 0.08% glucose, and 0.3 μM cytosine arabinoside (AraC) at 37° C., 7.5% CO2; BDNF+NGF (PeproTech) were added to the cell body compartment at a concentration of 10 ng/ml and to the axon compartment at a concentration of 100 ng/ml for 2d. On day 3, media was replaced and the AraC was omitted. On day 5, neurotrophins were removed from the cell body compartment and reduced to 1 ng/ml in the axon compartments for 3-5 days. […] For calpain inhibition experiments, 20 μM calpain inhibitor III (VWR) and paclitaxel were added simultaneously to distal axon compartment.
Axonal degeneration assay. Compartmented chamber cultures were fixed at room temperature with 4% PFA diluted 1:2 in media for 10 min, then undiluted 4% PFA for an additional 20 min. Cultures were permeabilized with 0.1% TritonX-100 for 10 min, blocked in 3% BSA and 0.1% Triton X-100 for 1 hour at room temperature, and incubated with mouse anti-Tuj1 (1:400; clone Tuj1; Covance) overnight at 4° C. Cultures were then incubated with goat anti-mouse AlexaFluor (1:1000; Invitrogen) for 1 hour at room temperature and counterstained with DAPI. Images of distal axon tips were obtained using a 40× air objective, and axonal degeneration was quantified as a degeneration index, as previously described (Cosker et al., Neuroscience, 33:5195-5207 (2013)). Apoptosis analysis was carried out on the same cultures by taking images in the cell body compartment and counting total and condensed nuclei in NIH ImageJ software by an observer blind to condition.
Protein and peptide introduction. Recombinant His-tagged Bclw, Bcl2, and BclxL proteins (R&D Systems) or control β-galactosidase protein were introduced into cell bodies or axons of compartmented chamber cultures as described (e.g., Cosker et al., Nature Neuroscience, 19:690-696 (2016)). Briefly, 1 μg/μ1 protein was introduced into cultures using 2 μl Chariot reagent (Active Motif). To confirm expression of His-tagged proteins, cell bodies and axons were lysed in nonionic detergent, and protein lysates were separated as above and blotted with the following antibodies: anti-His (1:1000; Novagen) and anti-pan-actin (1:1000; Cell Signaling Technology). FITC-tagged SAHB peptides (BH4-Bclw, BH4-Bcl2, and BH4-BclxL; stock solutions 1 mM in DMSO) were introduced into cell bodies or axons using 350 ng peptide and 2 μl of Chariot reagent diluted 1:10 in water. Control was no peptide with 2 μl of 1:10 diluted Chariot. To confirm peptide expression, cultures were processed for axonal degeneration assay as above, and FITC immunofluorescence was examined with a 40× air objective. Paclitaxel was added to cultures 1 hour after protein or peptide transfection.

E15 DRG sensory neurons = experiment: Apoptosis analysis (condensed/total nuclei) in cell body compartment; details: paclitaxel to either subcellular compartment
Description: Cell culture. Compartmented chamber (Campenot) cultures were prepared as described (see, e.g., Fenstermacher et al., Springer Protocols: Neuromethods, 103:105-124 (2015)), with modifications. Briefly, DRGs from embryonic day 15 (E15) rats of either sex were dissected and trypsinized. DRGs (1.2×10^5 cells) were plated in the center compartment of a Teflon divider (Camp10, Tyler Research; Campenot, 1982) affixed to a p35 culture dish coated with growth factor reduced Matrigel basement membrane (BD Biosciences) 1:45 in DMEM. Cultures were maintained in media consisting of Neurobasal (Invitrogen) with 2% B27 supplement (Invitrogen), 1% penicillin-streptomycin, 1% GlutaMAX (Life Technologies), 0.08% glucose, and 0.3 μM cytosine arabinoside (AraC) at 37° C., 7.5% CO2; BDNF+NGF (PeproTech) were added to the cell body compartment at a concentration of 10 ng/ml and to the axon compartment at a concentration of 100 ng/ml for 2d. On day 3, media was replaced and the AraC was omitted. On day 5, neurotrophins were removed from the cell body compartment and reduced to 1 ng/ml in the axon compartments for 3-5 days. […]
Axonal degeneration assay. […] Images of distal axon tips were obtained using a 40× air objective, and axonal degeneration was quantified as a degeneration index, as previously described (Cosker et al., Neuroscience, 33:5195-5207 (2013)). […]

axon degeneration (axonal fragmentation, degeneration index) ([2]; paclitaxel 30 nM added to cell body compartment): no effect
axon degeneration (axonal fragmentation, degeneration index) ([2]; paclitaxel 30 nM added to distal axon compartment): increase axon degeneration
axonal degeneration ([2]; paclitaxel after shRNA knockdown of Bclw): further increased axonal degeneration
Compound: CC(=O)O[C@H]1C(=O)[C@@]2(C)[C@H]([C@H](OC(=O)c3ccccc3)[C@]3(O)C[C@H](OC(=O)[C@H](O)[C@@H](NC(=O)c4ccccc4)c4ccccc4)C(C)=C1C3(C)C)[C@]1(OC(C)=O)CO[C@@H]1C[C@@H]2O [paclitaxel]
axonal mitochondrial membrane potential (TMRE Fm/Fc) [1]: reduced axonal mitochondrial membrane potential
cell body apoptosis assessed by nuclear condensation (E15 DRG sensory neurons): did not induce cell body apoptosis
